Patent EP3674287A1, “COCRYSTALS OF (R)-BACLOFEN” (Zaklady Farmaceutyczne "Polpharma" S.A., priority 2018, dated 2020)
Values belong to the compound of their own block, whether it stands above or below them.

What was measured:
[1] = pKa of the coformer; cited from earlier work
Coformer pKa and ΔpKa = assay type: physicochemical; conditions: (R)-Baclofen versus coformer
[2] = Crystalline stability test under accelerated ICH storage conditions (XRPD); assay type: physicochemical
Procedure: The expression "crystalline stability" means that no conversion into another crystalline form occurs, as determined by XRPD. […]
Crystalline stability study of the new cocrystals found during the screening was performed under accelerated ICH storage conditions (40°C, 75±5 % RH) for 1 week and 4 weeks. The results are summarized in the Table 16: Table 16: Crystalline stability of cocrystals

[3] = Chemical stability study under accelerated ICH storage conditions (HPLC); assay type: physicochemical; conditions: for Chemical stability (HPLC): 40°C/ 75 ± 5 % RH, during 0, 1, 2 and 4 weeks; for Impurity A (HPLC % a/a) / Impurity A+Impurity CA2 (HPLC % a/a): RRT 0.7; for Impurity A (HPLC % a/a) / Impurity A+Impurity CA2 (HPLC % a/a) / Impurity B + Impurity FA1 (HPLC % a/a) / Impurity SA1 (HPLC % a/a) / Impurity CA1 (HPLC % a/a): 40 °C / 75 ± 5 % RH; for Impurity B + Impurity FA1 (HPLC % a/a): RRT 0.3; for Impurity SA1 (HPLC % a/a): RRT 0.33; for Impurity CA1 (HPLC % a/a): RRT 0.48
Procedure: Sample concentration : 5mg/5ml in ACN/H2O-0.1 methane sulfonic acid 20:80 Injection Volume: 10 µl; Run Time: 20.0 minutes; Column: […]100, 4.6x150 mm;100A,5µm; Mobile phase: gradient: ACN/H2O- 0.1 methane sulfonic acid 20:80 / ACN (95:5) -(75:25) - (95:5) Column temp.: 40°C; and Flow rate: 1 ml/min.
Samples were taken periodically (0 (start), after 1, 2, and 4 weeks) and analyzed by HPLC.
Retention time of (R)-Baclofen under conditions described in the Section "Measuring instruments, conditions and protocols" above, is about 13 min and the relative retention times (RRT) of known impurities are given below.

[4] = Solubility of prior-art crystal forms in water (EP2345634 B1); assay type: physicochemical; conditions: 25°C
[5] = Preliminary solubility study of (R)-Baclofen in 18 solvents; assay type: physicochemical; conditions: for Solubility: 40 volume
Procedure: A preliminary study of (R)-Baclofen solubility was performed using different solvents (18 solvents) in order to design a proper experimental space to obtain or detect a new crystalline form.
Solubility test were performed with 25 mg of (R)-Baclofen in a test tube with screw cap and magnetic stirring. The solvent was added in small portions of 2 volumes (mg/ml) at room temperature up to 40 volumes. After each addition, the sample was stirred for 2-5 minutes.

Structure (SMILES): COc1cc(C=O)ccc1O [Vanillin]
Coformer [pKa] [1]: Vanillin [pKa 7.5]

Structure (SMILES): COc1cc(C=O)ccc1O.NCC(CC(=O)O)c1ccc(Cl)cc1.NCC(CC(=O)O)c1ccc(Cl)cc1 (stereo not shown) [Form IX]
ΔpKa (Coformer pKa and ΔpKa): -3.70 | Crystalline stability study 40 °C/ 75 ± 5 % RH After 1 week [2]: Unstable | Crystalline stability study 40 °C/ 75 ± 5 % RH After 4 weeks [2]: Unstable

Structure (SMILES): NCC(CC(=O)O)c1ccc(Cl)cc1.NCC(CC(=O)O)c1ccc(Cl)cc1.O=C(O)C=CC(=O)O (stereo not shown) [Form VII]
ΔpKa (Coformer pKa and ΔpKa): 0.77 | Crystalline stability study 40 °C/ 75 ± 5 % RH After 1 week [2]: Unstable | Crystalline stability study 40 °C/ 75 ± 5 % RH After 4 weeks [2]: Unstable

Structure (SMILES): O=C(O)/C=C/c1ccccc1 [Cinnamic acid, (2E)-3-phenylprop-2-enoic acid]
Coformer [pKa] [1]: Cinnamic acid [pKa 4.10]

Structure (SMILES): COc1cc(/C=C/C(=O)O)ccc1O [Ferulic acid, (E)-3-(4-hydroxy-3-methoxy-phenyl)prop-2-enoic acid]
Coformer [pKa] [1]: Ferulic acid [pKa 4.26]

Structure (SMILES): NCC(CC(=O)O)c1ccc(Cl)cc1.NCC(CC(=O)O)c1ccc(Cl)cc1.O=C(O)c1ccccc1 (stereo not shown) [Form II]
ΔpKa (Coformer pKa and ΔpKa): -0.3 | Chemical stability (HPLC) [3]: stable | Impurity A (HPLC % a/a) ([3]; week 0): 0.02 % a/a | Impurity A (HPLC % a/a) ([3]; week 1): 0.02 % a/a | Impurity A (HPLC % a/a) ([3]; week 2): 0.02 % a/a | Impurity A (HPLC % a/a) ([3]; week 4): 0.02 % a/a | Crystalline stability study 40 °C/ 75 ± 5 % RH After 1 week [2]: stable | Crystalline stability study 40 °C/ 75 ± 5 % RH After 4 weeks [2]: Stable | Crystalline stability study 40 °C/ 75 ± 5 % RH After 4 weeks ([2]; listed as (R)-Baclofen-benzoic acid cocrystal Form II): stable

solubility according to USP solubility test (descriptive term) [4]: sparingly soluble
Structure (SMILES): NC[C@H](CC(=O)O)c1ccc(Cl)cc1 [Crystal Form B, (3R)-4-amino-3-(4-chlorophenyl)butanoic acid]

Structure (SMILES): COc1cc(C=CC(=O)O)ccc1O.NCC(CC(=O)O)c1ccc(Cl)cc1 [Form XII]
Chemical stability (HPLC) [3]: stable | Impurity A+Impurity CA2 (HPLC % a/a) ([3]; Form XII table, week 0): 0.05 % a/a | Impurity A+Impurity CA2 (HPLC % a/a) ([3]; Form XII table, week 1): 0.04 % a/a | Impurity A+Impurity CA2 (HPLC % a/a) ([3]; Form XII table, week 2): 0.05 % a/a | Impurity A+Impurity CA2 (HPLC % a/a) ([3]; Form XII table, week 4): 0.05 % a/a | Impurity B + Impurity FA1 (HPLC % a/a) ([3]; week 0): 0.07 % a/a | Impurity B + Impurity FA1 (HPLC % a/a) ([3]; week 1): 0.07 % a/a | Impurity B + Impurity FA1 (HPLC % a/a) ([3]; week 2): 0.08 % a/a | Impurity B + Impurity FA1 (HPLC % a/a) ([3]; week 4): 0.07 % a/a | Crystalline stability study 40 °C/ 75 ± 5 % RH After 1 week [2]: Stable | Crystalline stability study 40 °C/ 75 ± 5 % RH After 4 weeks [2]: Stable | Crystalline stability study 40 °C/ 75 ± 5 % RH After 4 weeks ([2]; listed as (R)-Baclofen-ferulic acid cocrystal Form XII): stable

Structure (SMILES): NCC(CC(=O)O)c1ccc(Cl)cc1.O=C(O)C=Cc1ccccc1 (stereo not shown) [Form IV]
Impurity A+Impurity CA2 (HPLC % a/a) ([3]; week 0, listed as Cocrystal Form IV): 0.03 % a/a | Impurity A+Impurity CA2 (HPLC % a/a) ([3]; week 1, listed as Cocrystal Form IV): 0.03 % a/a | Impurity A+Impurity CA2 (HPLC % a/a) ([3]; week 2, listed as Cocrystal Form IV): 0.03 % a/a | Impurity A+Impurity CA2 (HPLC % a/a) ([3]; week 4, listed as Cocrystal Form IV): 0.03 % a/a | Crystalline stability study 40 °C/ 75 ± 5 % RH After 4 weeks ([2]; listed as (R)-Baclofen-cinnamic acid cocrystal Form IV): stable

Solubility ([5]; Acetone, reflux): Insoluble | Solubility ([5]; Acetonitrile, reflux): Insoluble | Solubility ([5]; DMF, reflux): Soluble | Solubility ([5]; DMSO, reflux): Soluble | Solubility ([5]; Dichloromethane, reflux): Insoluble | Solubility ([5]; Dioxane, reflux): Insoluble | Solubility ([5]; Ethanol, reflux): Insoluble | Solubility ([5]; Ethyl acetate, reflux): Insoluble | Solubility ([5]; Heptane, reflux): Insoluble | Solubility ([5]; Isobutyl acetate, reflux): Insoluble | Solubility ([5]; Isopropyl alcohol, reflux): Insoluble | Solubility ([5]; Methanol, reflux): Insoluble | Solubility ([5]; Methyl isobutyl ketone, reflux): Insoluble | Solubility ([5]; THF, reflux): Insoluble | Solubility ([5]; Tert-butyl methyl ether, reflux): Insoluble | Solubility ([5]; Toluene, reflux): Insoluble | Solubility ([5]; Water, reflux): soluble | Solubility ([5]; cyclohexane, reflux): Insoluble | solubility in water and majority of commonly used organic solvents ([5]; overall conclusion of the solvent study): low solubility | Solubility ([5]; the other tested solvents (samples 4-18), even at reflux temperature): insoluble
Structure (SMILES): NC[C@H](CC(=O)O)c1ccc(Cl)cc1 [(R)-Baclofen, (3R)-4-amino-3-(4-chlorophenyl)butanoic acid]

Structure (SMILES): NCC(CC(=O)O)c1ccc(Cl)cc1.O=C(O)c1ccccc1O (stereo not shown) [Form VIII]
ΔpKa (Coformer pKa and ΔpKa): 0.83 | Chemical stability (HPLC) [3]: stable | Impurity SA1 (HPLC % a/a) ([3]; week 0): 0.05 % a/a | Impurity SA1 (HPLC % a/a) ([3]; week 1): 0.05 % a/a | Impurity SA1 (HPLC % a/a) ([3]; week 2): 0.05 % a/a | Impurity SA1 (HPLC % a/a) ([3]; week 4): 0.05 % a/a | Impurity A (HPLC % a/a) ([3]; week 0): 0.04 % a/a | Impurity A (HPLC % a/a) ([3]; week 1): 0.04 % a/a | Impurity A (HPLC % a/a) ([3]; week 2): 0.04 % a/a | Impurity A (HPLC % a/a) ([3]; week 4): 0.04 % a/a | Crystalline stability study 40 °C/ 75 ± 5 % RH After 1 week [2]: Stable | Crystalline stability study 40 °C/ 75 ± 5 % RH After 4 weeks [2]: Stable | Crystalline stability study 40 °C/ 75 ± 5 % RH After 4 weeks ([2]; listed as (R)-Baclofen-salicylic acid cocrystal Form VIII): stable

Structure (SMILES): NCC(CC(=O)O)c1ccc(Cl)cc1.O=C(O)C=Cc1ccccc1 (stereo not shown) [Form III]
ΔpKa (Coformer pKa and ΔpKa): -0.60 | Chemical stability (HPLC) [3]: stable | Impurity CA1 (HPLC % a/a) ([3]; week 0): 0.03 % a/a | Impurity CA1 (HPLC % a/a) ([3]; week 1): 0.03 % a/a | Impurity CA1 (HPLC % a/a) ([3]; week 2): 0.03 % a/a | Impurity CA1 (HPLC % a/a) ([3]; week 4): 0.03 % a/a | Impurity A+Impurity CA2 (HPLC % a/a) ([3]; week 0, listed as Cocrystal Form III): 0.04 % a/a | Impurity A+Impurity CA2 (HPLC % a/a) ([3]; week 1, listed as Cocrystal Form III): 0.04 % a/a | Impurity A+Impurity CA2 (HPLC % a/a) ([3]; week 2, listed as Cocrystal Form III): 0.04 % a/a | Impurity A+Impurity CA2 (HPLC % a/a) ([3]; week 4, listed as Cocrystal Form III): 0.04 % a/a | Crystalline stability study 40 °C/ 75 ± 5 % RH After 1 week [2]: Stable | Crystalline stability study 40 °C/ 75 ± 5 % RH After 4 weeks [2]: Stable | Crystalline stability study 40 °C/ 75 ± 5 % RH After 4 weeks ([2]; listed as (R)-Baclofen-cinnamic acid cocrystal Form III): stable
